Where two headings read alike, the source gives them in different places.
Assays:
[1] = Thermodynamic stability constants of lanthanum complexes by potentiometric titration; settings: for pLa (−log [M]free): [M]tot = 10^−6 M, [L]tot = 10^−5 M; for pLa (−log [M]free) / log KLa′ (conditional stability constant): pH 7.4, 25° C., I = 0.1M KCl; for ranking of log KLaL of lanthanum-ligand complexes: equimolar La^3+; for ranking of log KLaL of lanthanum-ligand complexes / stability of complexes with La^3+ (in words): potentiometric titration
Procedure: Thermodynamic stability studies.
(§1) Potentiometric Titrations. Stability constant measurements were carried out by titrating an aqueous solution (˜15 mL) of ligand (˜1 mM), metal (˜1 mM), and HCl (˜10 mM) with standardized KOH (0.1 M). The ionic strength of the solution was maintained at 0.1 M using KCl. The titration method employed a 0.1 mV/min drift limit with a minimum and maximum wait time of 0 s and 300 s respectively between addition of KOH aliquots (0.015 mL volume increments). No metal hydroxide precipitation was observed within the pH range and concentration employed. […] The stability constants were calculated from the average of three independent titrations (using three independently prepared ligand stock solutions from three independent synthetic preparations of ligands).

[2] = Protonation constants by potentiometric titration; assay type: physicochemical; settings: I=0.1 M KCl, 25° C.
Procedure: Potentiometric Titrations. Stability constant measurements were carried out by titrating an aqueous solution (˜15 mL) of ligand (˜1 mM), metal (˜1 mM), and HCl (˜10 mM) with standardized KOH (0.1 M). The ionic strength of the solution was maintained at 0.1 M using KCl. The titration method employed a 0.1 mV/min drift limit with a minimum and maximum wait time of 0 s and 300 s respectively between addition of KOH aliquots (0.015 mL volume increments). […] The titration data within the pH range of 2.2-11.3 were analyzed using Hyperquad2013 software. The stability constants were calculated from the average of three independent titrations (using three independently prepared ligand stock solutions from three independent synthetic preparations of ligands).

[3] = Thermodynamic stability constants of barium complexes by potentiometric titration; settings: for pBa (−log [M]free): [M]tot = 10^−6 M, [L]tot = 10^−5 M; for pBa (−log [M]free) / log KBa′ (conditional stability constant): pH 7.4, 25° C., I = 0.1M KCl
Procedure: Thermodynamic stability studies.
as §1

[4] = pH 7.4
Procedure: Thermodynamic stability studies.
as §1

[5] = pH 7.4; remark: listed apart in the source
Procedure: Thermodynamic stability studies.
as §1

[6] = assay type: in vivo, mice
Procedure: Biodistribution. […] At 48 and 96 h post-injection, mice (n=3-4 per time point) were euthanized. Their organs were harvested and weighed, then counted on a gamma counter after allowing 24 h for ^225Ac daughters to equilibrate. The activity in each organ was decay-corrected using a standard of known activity prepared at the same time as the injections. Radiotracer uptake in each organ was calculated by dividing the % injected activity (% IA) in each organ by the organ's weight. Measurement errors are reported as the standard deviation of the % IA/g values (FIGS. 2A-2B).

[7] = assay type: physicochemical
Procedure: H2BZmacropa-NCS Hydrolysis. The stability of BZmacropa-NCS^2— towards hydrolysis was tested as the followings. A solution (1 mL) of H2BZmacropa-NCS (≈1.5 mM) was prepared in 0.1 M Na2CO3/NaHCO3pH 9.1 buffer and stored at room temperature (≈23±1° C.) in a vial covered with aluminum foil. This solution was analyzed periodically by analytical HPLC (method quick-MeCN, 5 μL aliquots) for over a week.

[8] = target: T1, human GPC3 protein (Homo sapiens, UniProt P51654); assay: Binding affinity by bio-layer interferometry (BLI); settings: immobilized biotinylated human GPC3, antibody 0-25 nM, global fit
T1 construct: biotin (biotinylated); purchased Acro Biosystems, Newark, DE
Procedure: Biotinylated human GPC3 protein (Acro Biosystems, Newark, DE) was diluted to 1 μg/mL in assay buffer: 1×PBS with 0.02% Tween-20 and 0.1% acetylated BSA (Electron Microscopy Sciences, Hatfield, PA) in a 96-well plate and loaded onto streptavidin biosensors (ForteBio, Menlo Park, CA). Antibodies were diluted in assay buffer at 4 concentrations from 0-25 nM and loaded into a 96-well plate (final volume of 200 μL). GPC3 was loaded to a density of 0.3 to avoid avidity affects. Reference wells containing buffer only, GPC3-only and antibody only were used as blanks. Plates were run on an Octet Red96 system (FortéBio, Menlo Park, CA) and analyzed with ForteBio Octet Data Analysis software (v.11). […] The combined association and dissociation kinetic data across all concentrations were fit using the global fitting model in the Octet Analysis Studio software.

Row | Compound | log KLaL ([1]; I=0.1 M KCl, 25° C.) | pLa (−log [M]free) [1] | log KLa′ (conditional stability constant) [1] | log K1 (protonation constant) [2] | log K2 (protonation constant) [2] | log K3 (protonation constant) [2] | log K4 (protonation constant) [2] | log KBaL ([3]; I=0.1 M KCl, 25° C.) | pBa (−log [M]free) [3] | log KBa′ (conditional stability constant) [3] | ranking of log KLaL of lanthanum-ligand complexes [1] | log KBaHL ([3]; I=0.1 M KCl, 25° C.) | other results
1 | O=C(O)CN(CCN(CC(=O)O)CC(=O)O)CC(=O)O [EDTA] | 15.46 | 13.60 | 12.65 | 10.19 | 6.13 | 2.69 | 2.00 | 7.80 | 6.28 | 4.99 |  |  | 
2 | O=C(O)c1cccc(CN2CCOCCOCCN(Cc3cccc(C(=O)O)n3)CCOc3ccccc3OCC2)n1 [H2BZmacropa, 6,6′-((2,3,5,6,8,9,11,12,14,15-decahydro-4H,13H-benzo[b][1,4,10,13]tetraoxa[7,16]diazacyclooctadecine-4,13-diyl)bis(methylene))dipicolinic acid] | 13.98 |  |  | 7.06 | 6.41 | 3.33 | 2.49 | 9.09 | 9.87 | 8.91 | H2macropa>H2BZmacropa>H2BZ2macropa | 3.56 | stability of complexes with La^3+ (in words) [1]: form highly stable complexes with La^3+
3 | O=C(O)CN(CCN(CC(=O)O)CC(=O)O)CCN(CC(=O)O)CC(=O)O [DTPA] | 19.48 | 16.28 |  | 10.34 | 8.59 | 4.25 | 2.71 | 8.78 | 6.15 |  |  | 5.34 | log KLa′ (conditional stability constant) [4]: 15.32; log KBa′ (conditional stability constant) [5]: 4.63; log K5 (protonation constant) [2]: 2.18
4 | ^225Ac[Ac]-GC33-BZM: "The radioconjugate ^225Ac[Ac]-GC33-BZM" |  |  |  |  |  |  |  |  |  |  |  |  | tumor targeting compared with ^225Ac[Ac]-GC33-M ([6]; mice, intravenous 100 nCi, 48 and 96 h): no significant difference; tumor uptake ([6]; mice, intravenous 100 nCi, 48 and 96 h post-injection): clear, specific tumor uptake at both 48 and 96 h post-injection, with tumor signal greater than that of all organs at both time points; off-target accumulation in liver and femur compared with ^225Ac[Ac]-GC33-M ([6]; mouse, in vivo): higher than that of ^225Ac[Ac]-GC33-M in both the liver and femur at 48 h
5 | O=C(O)c1cccc(CN2CCOCCOCCN(Cc3cc(N=C=S)cc(C(=O)O)n3)CCOCCOCC2)n1 [H2macropa-NCS] |  |  |  |  |  |  |  |  |  |  |  |  | time for complete hydrolysis ([7]; 0.1 M Na2CO3/NaHCO3 pH 9.1 buffer, room temperature): more than a week's time; half-life of hydrolysis of the thiocyanate functional group ([7]; buffer, pH 9.1): 56 h
6 | O=C(O)c1cccc(CN2CCOc3ccccc3OCCN(Cc3cccc(C(=O)O)n3)CCOc3ccccc3OCC2)n1 [H2BZ2macropa, 6,6′-((6,7,9,10,17,18,20,21-octahydro-8H,19H-dibenzo[b,k][1,4,10,13]tetraoxa[7,16]diazacyclooctadecine-8,19-diyl)bis(methylene))dipicolinic acid] |  |  |  |  |  |  |  |  |  |  | H2macropa>H2BZmacropa>H2BZ2macropa |  | stability of complexes with La^3+ (in words) [1]: form highly stable complexes with La^3+
7 | GC33-BZM: "GC33-BZmacropa conjugate" |  |  |  |  |  |  |  |  |  |  |  |  | Kd [8]: 0.19 nM
8 | O=C(O)c1cccc(CN2CCOCCOCCN(Cc3cccc(C(=O)O)n3)CCOCCOCC2)n1 [H2macropa] | 14.99 | 15.58 | 14.63 | 7.41 | 6.90 | 3.23 | 2.45 | 11.11 | 11.69 | 10.74 | H2macropa>H2BZmacropa>H2BZ2macropa | 3.76 | log KLaHL ([1]; I=0.1 M KCl, 25° C.): 2.28; log KBaH2L ([3]; I=0.1 M KCl, 25° C.): 2.49
9 | O=C(O)CN1CCN(CC(=O)O)CCN(CC(=O)O)CCN(CC(=O)O)CC1 [DOTA] | 21.7 | 16.62 | 15.67 | 11.14 | 9.69 | 4.85 | 3.95 | 11.75 | 6.76 | 5.72 |  |  | 

Source: patent publication US20240261444A1, “RIGIDIFIED MACROCYCLES, COMPLEXES WITH RADIONUCLIDES, AND USE IN TARGETED RADIOTHERAPY OF CANCER” (Cornell University, priority 2021, published 2024)
